The record followed here is patent publication US7705012B2, “Camptothecins conjugated in position 7 to cyclic peptides as cytostatic agents” (priority 2004, dated 2010).

One may read the IC50 as the concentration needed to halve the response being measured.

The target in one test is T1, purified αvβ3 receptor (Homo sapiens, UniProt P05106+P06756).
T1 construct: purchased Chemicon CC1020
Description: Binding to integrin αvβ3 receptors ([125I]echistatin competition). How it is done:
Binding to Integrin αvβ3 Receptors
(§1) An aliquot of 100 μl was added to 96-well plates and incubated overnight at +4° C. Plates were washed once with buffer (50 mM Tris, pH 7,4, 100 mM NaCl, 2 mM CaCl2, 1 mM MgCl2, 1 mM MnCl2, 1% bovine serum albumin) and then incubated for another 2 hours at room temperature. Plates were washed twice with the same buffer and incubated for 3 hours at room temperature with the radioactive ligand [^125I]echistatin (Amersham Pharmacia Biotech) 0.05 nM in the presence of competition ligands. At the end of incubation, the wells were washed and the radioactivity determined using a gamma counter (Packard). Non-specific binding of the ligand was determined in the presence of excess cold echistatin (1 μM).
(§2) Evaluation of IC50 Parameters
(§3) The IC50 parameter was elaborated using “ALLFIT” software.

Test [1] concerns A2780 human ovarian carcinoma cells. The test can be described thus: Cytotoxicity, sulphorodamine B test, A2780. In kind it is cell-based. Conditions: 72 h, cell survival, read-out: A2780 IC50 ± SD. The method, then: (§4) Cytotoxicity of the Conjugates on Different Tumor Cell Lines
(§5) To evaluate the effect of the compound on cell survival, the sulphorodamine B test was used. PC3 human prostate carcinoma, A498 human renal carcinoma, A2780 human ovarian carcinoma cells were used. A2780 and PC3 tumor cells were grown RPMI 1640 containing 10% fetal bovine serum (GIBCO), whereas A498 tumor cells were grown in EMEM containing 10% fetal bovine serum (GIBCO).
(§6) Tumor cells were seeded in 96-well tissue culture plates (Corning) at approximately 10% of confluence and were allowed to attach and recover for at least 24 h. […] The plates were incubated for 72 h at 37° C. At the end of the treatment, the plates were washed by remotion of the surnatant and addition of PBS 3 times. 200 μl PBS and 50 μl of cold 80% TCA were added. The plates were incubated on ice for at least 1 h. TCA was removed, the plates were washed 3 times for immersion in distilled-water and dried on paper and at 40° C. for 5 min. Then 200 μl of 0.4% sulphorodamine B in 1% acetic acid were added. The plates were incubated at room temperature for other 30 min. Sulphorodamine B was removed, the plates were washed for immersion in 1% acetic acid for 3 times, then they were dried on paper and at 40° C. for 5 min. Then 200 μl Tris 10 mM were added, the plates were kept under stirring for 20 min. The survival cell was determined as optical density by a Multiskan spectrofluorimeter at 540 nm. The amount of cells killed was calculated as the percentage decrease in sulphorodamine B binding compared with control cultures. The IC50 values were calculated with the “ALLFIT” program.

In the next test the target is T2, purified αvβ5 receptor (Homo sapiens, UniProt P06756+P18084).
T2 construct: purchased Chemicon CC1020
The test can be described thus: Binding to integrin αvβ5 receptors ([125I]echistatin competition). The method, then:
Binding to Integrin αvβ5 Receptors
as §1, with “7.4,” for “7,4,”, “0.15” for “0.05”, “Non-specific ligand” for “Non-specific”, “binding” for “binding of the ligand”
as §2, §3

The subject of test [2] is PC3 human prostate carcinoma. Description: Cytotoxicity, sulphorodamine B test, PC3. Type of test: cell-based. Conditions: PC3 cells, 72 h, cell survival; read-out: PC3 IC50 ± SD. How it is done:
as §4, §5, §6

Test [3] deals with A498 human renal carcinoma. The test can be described thus: Cytotoxicity, sulphorodamine B test, A498. Type of test: cell-based. Conditions: A498 cells, 72 h, cell survival; read-out: A498 IC50 ± SD. How it is done:
as §4, §5, §6

Molecules are shown by their SMILES. Values joined by “and” are separate entries in the source; they are usually repeats but may differ in a detail not shown here. Equal values may be shown once. Read-outs that look alike come from different tables or passages of the source.

Turning to `CC[C@@]1(O)C(=O)OCc2c1cc1n(c2=O)Cc2c-1nc1ccccc1c2/C=N\OCCNC(=O)CCC[C@@H]1NC(=O)[C@@H](Cc2ccccc2)NC(=O)[C@H](CC(=O)O)NC(=O)CNC(=O)[C@H](CCCNC(=N)N)NC1=O` [ST2686], the concentration for half-maximal inhibition (IC50) amounted to 0.59 ± 0.01 nM at purified αvβ3 receptor (inhibition of specific [125I]echistatin 0.05 nM binding, 3 hours at room temperature, read-out: αvβ3 IC50 ± SD); 400 ± 30 nM in test [1]; 0.37 ± 0.01 nM at purified αvβ5 receptor (inhibition of specific [125I]echistatin 0.15 nM binding, 3 hours at room temperature, read-out: αvβ5 IC50 ± SD); 15000 ± 1500 nM in test [2]; 3200 nM in test [3].
`CC[C@@]1(O)C(=O)OCc2c1cc1n(c2=O)Cc2c-1nc1ccccc1c2/C=N\OCCNC(=O)CCC(=O)NCc1ccc(C[C@@H]2NC(=O)[C@@H](Cc3ccccc3)NC(=O)[C@H](CC(=O)O)NC(=O)CNC(=O)[C@H](CCCNC(=N)N)NC2=O)cc1` [ST2724]: the IC50 is 7.27 ± 0.06 nM on purified αvβ3 receptor; 160 ± 1 nM in test [1]; 8.39 ± 0.07 nM on purified αvβ5 receptor; 4700 ± 400 nM in test [2]; 4300 nM in test [3].
Turning to `CC[C@@]1(O)C(=O)OCc2c1cc1n(c2=O)Cc2c-1nc1ccccc1c2/C=N\OCCNC(=O)COCCOCCOCC(=O)NCc1ccc(C[C@@H]2NC(=O)[C@@H](Cc3ccccc3)NC(=O)[C@H](CC(=O)O)NC(=O)CNC(=O)[C@H](CCCNC(=N)N)NC2=O)cc1` [ST2742], the concentration for half-maximal inhibition (IC50) is 12.5 ± 2.1 nM at purified αvβ3 receptor; 180 ± 10 nM in test [1]; 6.5 ± 0.03 nM at purified αvβ5 receptor; 27000 ± 3900 nM in test [2]; 740 nM and 700 nM in test [3].
